# Measurements reported in ChEMBL document CHEMBL1148986, “Scalarane metabolites of the nudibranch Glossodoris rufomarginata and Its dietary sponge from the South China Sea” (J Nat Prod, 2004).
# Test system: Gambusia affinis
# Test: Ichthyotoxicity against Gambusia affinis at 10 ppm
# Format: organism-based
# Conditions: in vivo; call rule not given here
row,SMILES,Activity
1,CC1(C)CCC[C@]2(C)[C@H]3CC(=O)[C@]4(C)[C@@H]5C(=CC[C@H]4[C@]3(C)CC[C@@H]12)CO[C@H]5O,Toxic
2,CC(=O)O[C@@H]1OCC2=CC[C@H]3[C@]4(C)CC[C@H]5C(C)(C)CCC[C@]5(C)[C@H]4CC(=O)[C@]3(C)[C@H]21,Toxic
3,CC1(C)CCC[C@]2(C)[C@H]3CC(=O)[C@]4(C)[C@@H](C=O)C(C=O)=CC[C@H]4[C@]3(C)CC[C@@H]12,Toxic
4,CC(=O)O[C@H]1C[C@@H]2[C@@]3(C)CCCC(C)(C)[C@@H]3CC[C@@]2(C)[C@@H]2CC=C3CO[C@@H](O)[C@@H]3[C@@]12C,Toxic
5,CC1(C)CCC[C@]2(C)[C@H]3C[C@H](O)[C@]4(C)[C@@H](C=O)C(C=O)=CC[C@H]4[C@]3(C)CC[C@@H]12,Toxic
6,CC(=O)O[C@@H]1OCC2=CC[C@H]3[C@]4(C)CC[C@H]5C(C)(C)CCC[C@]5(C)[C@H]4C[C@H](OC(C)=O)[C@]3(C)[C@H]21 [DEOXOSCALARIN ACETATE],Not Active
7,CC(=O)O[C@H]1C[C@@H]2[C@@]3(C)CCCC(C)(C)[C@@H]3CC[C@@]2(C)[C@@H]2CC=C(C=O)[C@H](C=O)[C@@]12C [SCALARADIAL],Toxic
